± gives the standard deviation of the averaged measurements.
Assays:
Test in all cases: LOEC (log10 uM (lowest observed effect concentration))
[1] = compound: OCC(F)(F)C(F)(F)C(F)(F)C(F)(F)C(F)(F)C(F)(F)C(F)(F)C(F)(F)CO [1H,1H,10H,10H-Perfluorodecane-1,10-diol]
Experimental: (§1)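 BioMAP Diversity Plus panel in human primary cell co-cultures, 4 concentrations in duplicate blinded samples. Responses are log10 fold change versus DMSO control, processed with tcpl v2.1.0. A hit is called when responses at any concentration exceed the cutoff (the larger of 3*bmad or log10(1.2)); the lowest observed effect concentration (modl_ga, log10 uM) is reported for hits.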

[2] = compound: OCCCC(F)(F)C(F)(F)C(F)(F)C(F)(F)C(F)(F)C(F)(F)C(F)(F)C(F)(F)F [3-(Perfluorooctyl)propanol]
Experimental: as §1

[3] = compound: OCCC(F)(F)C(F)(F)C(F)(F)C(F)(F)C(F)(F)C(F)(F)C(F)(F)C(F)(F)F [8:2 Fluorotelomer alcohol]
Experimental: as §1

[4] = compound: OC(C(F)(F)F)(C(F)(F)F)C(O)(C(F)(F)F)C(F)(F)F [Perfluoropinacol]
Experimental: as §1

[5] = compound: C=CC(=O)OCC(F)(F)C(F)(F)C(F)(F)C(F)(F)COC(=O)C=C [1H,1H,6H,6H-Perfluorohexane-1,6-diol diacrylate]
Experimental: as §1

[6] = compound: FC(F)(I)C(F)(F)C(F)(F)C(F)(F)C(F)(F)C(F)(F)I [1,6-Diiodoperfluorohexane]
Experimental: as §1

[7] = compound: O=C(CC(=O)C(F)(F)C(F)(F)C(F)(F)F)c1cccs1 [(Perfluorobutyryl)-2-thenoylmethane]
Experimental: as §1

Row | Test System | LOEC (log10 uM) [1] | LOEC (log10 uM) [2] | LOEC (log10 uM) [3] | LOEC (log10 uM) [4] | LOEC (log10 uM) [5] | LOEC (log10 uM) [6] | LOEC (log10 uM) [7]
1 | hDFCGF EGFR down | 1.78 | 0.845 | 1.54 ± 0.34 | 1.54 ± 0.34 | – | – | –
2 | KF3CT MCP1 down | 1.78 | 1.3 | 1.3 | – | 1.07 ± 0.32 | 0.845 | –
3 | KF3CT SRB down | 1.78 | 1.3 | 1.3 | 1.78 | 1.78 | 1.07 ± 0.32 | –
4 | CASM3C SAA down | – | 1.78 | 1.78 | – | 1.3 | 1.3 | 1.78
5 | SAg CD38 down | – | 1.3 | 1.3 | 1.3 | 1.3 | 1.78 | 1.07 ± 0.32
6 | KF3CT MIG down | 1.78 | 1.3 | 1.54 ± 0.34 | 1.78 | 1.3 | 1.07 ± 0.32 | –
7 | CASM3C IL6 down | – | – | – | – | – | 1.54 ± 0.34 | 1.78
8 | BE3C uPA down | – | 1.78 | 1.78 | 1.78 | 1.54 ± 0.34 | 1.78 | 1.78
9 | BF4T MMP3 down | – | 1.78 | – | – | – | 1.3 | 1.54 ± 0.34
10 | SAg MIG down | – | 1.78 | 1.78 | 1.78 | 1.3 | 1.78 | 1.78
11 | 4H VEGFRII down | – | 1.78 | 1.54 ± 0.34 | 1.54 ± 0.34 | 1.54 ± 0.34 | – | 1.3
12 | CASM3C MCP1 down | – | 1.54 ± 0.34 | 1.78 | – | 1.78 | 1.3 | 1.78
13 | MyoF CollagenI down | – | 1.3 | 1.3 | 1.78 | 1.3 | 0.845 | 1.3
14 | KF3CT PAI1 down | 1.78 | 1.07 ± 0.32 | 1.3 | 1.78 | 1.3 | 0.845 | –
15 | hDFCGF MCP1 up | – | – | – | 1.3 | – | – | –
16 | CASM3C LDLR down | – | 1.78 | 1.78 | – | – | 1.54 ± 0.34 | 1.54 ± 0.34
17 | 3C IL8 down | – | 1.3 | 1.78 | 1.78 | 1.54 ± 0.34 | 1.54 ± 0.34 | 0.845
18 | CASM3C PAI1 down | – | 1.78 | 1.78 | – | 1.78 | 1.78 | –
19 | BE3C ITAC down | 1.3 | 1.78 | 1.3 | 1.78 | 1.78 | 1.54 ± 0.34 | 1.3
20 | 4H uPAR down | – | 1.54 ± 0.34 | 1.3 | 1.07 ± 0.32 | 1.78 | 1.78 | 1.78
21 | KF3CT MCP1 up | – | – | – | 1.3 | – | – | –
22 | BF4T MMP1 down | – | 1.78 | – | – | – | 1.78 | 1.54 ± 0.34
23 | KF3CT uPA down | – | 1.3 | 1.3 | – | 1.3 | 1.3 | –
24 | LPS PGE2 down | – | – | – | – | 1.3 | – | –
25 | CASM3C MCP1 up | – | – | – | 1.54 ± 0.34 | – | – | –
26 | LPS VCAM1 down | – | 1.07 ± 0.32 | 1.07 ± 0.32 | 1.54 ± 0.34 | 1.3 | 1.54 ± 0.34 | 1.78

Row | Test System | LOEC (log10 uM) [1] | LOEC (log10 uM) [2] | LOEC (log10 uM) [3] | LOEC (log10 uM) [4] | LOEC (log10 uM) [5] | LOEC (log10 uM) [6] | LOEC (log10 uM) [7]
27 | MyoF CollagenIV down | – | – | – | – | 1.3 | – | –
28 | IMphg MCSF down | 1.78 | 1.78 | 1.78 | 1.54 ± 0.34 | 1.54 ± 0.34 | 1.78 | –
29 | IMphg IL8 down | 1.78 | – | – | – | – | 1.78 | –
30 | MyoF PAI1 down | – | 1.3 | 1.3 | 1.78 | 1.3 | 1.07 ± 0.32 | –
31 | MyoF IL8 down | – | 1.3 | 1.3 | – | 1.3 | 1.3 | –
32 | hDFCGF CollagenI down | – | – | 1.78 | – | – | – | 1.3
33 | MyoF MMP1 down | – | 1.3 | – | – | – | – | –
34 | BF4T IL1a down | – | 1.78 | – | – | 1.78 | 1.54 ± 0.34 | 1.78
35 | LPS TissueFactor up | – | – | – | – | – | – | 1.3
36 | BE3C Keratin818 down | – | 1.78 | 1.54 ± 0.34 | – | – | 1.78 | 1.3
37 | LPS MCSF down | – | 1.3 | 1.04 ± 1 | 1.3 | 1.3 | 1.78 | –
38 | hDFCGF ICAM1 down | 1.78 | 1.07 ± 0.32 | 1.3 | – | 0.845 | 0.845 | –
39 | hDFCGF TIMP1 down | 1.78 | 1.07 ± 0.32 | 1.3 | – | 0.845 | 1.07 ± 0.32 | –
40 | hDFCGF PAI1 down | 1.78 | 0.845 | 1.3 | 1.78 | 1.3 | 0.845 | –
41 | MyoF SRB down | – | 1.3 | 1.3 | 1.78 | 1.3 | 0.845 | –
42 | IMphg MCP1 down | 1.78 | 1.3 | 1.78 | 1.3 | 1.31 ± 0.66 | 1.3 | 1.3
43 | 4H MCP1 down | – | 1.78 | – | 1.54 ± 0.34 | 1.78 | 1.54 ± 0.34 | 1.3
44 | IMphg IL1a down | 1.78 | 1.78 | – | – | – | – | –
45 | BE3C SRB down | – | 1.78 | 1.3 | 1.78 | – | 1.78 | 1.78
46 | BF4T PAI1 down | 1.3 | 1.3 | 1.78 | 1.3 | – | 1.07 ± 0.32 | 1.3
47 | 3C HLADR down | – | 1.3 | 1.3 | 1.3 | 1.3 | 1.54 ± 0.34 | 1.07 ± 0.32
48 | BE3C uPAR down | 1.78 | 1.78 | 1.54 ± 0.34 | 1.3 | 1.78 | 1.78 | 1.78
49 | BF4T MMP9 down | 1.78 | 1.3 | 1.3 | – | 1.54 ± 0.34 | 1.07 ± 0.32 | 1.3
50 | IMphg SRB down | 1.78 | 1.54 ± 0.34 | 1.78 | 1.3 | – | 1.3 | 1.3
51 | BE3C EGFR down | 1.78 | 1.78 | – | – | 1.54 ± 0.34 | 1.78 | 1.31 ± 0.66
52 | BF4T SRB down | 1.78 | 1.3 | 1.54 ± 0.34 | – | – | 1.3 | 1.78

— the supplement of paper PMC10331698
